IC50 data for 40 compounds are collected here from US8507479B2, “Aminodihydrothiazine derivatives substituted with a cyclic group” (Shionogi & Co., Ltd., priority 2007, dated 2013).

The target in the first assay is Recombinant human BACE-1 (Homo sapiens (Human), UniProt P56817). Nature of the assay: Assay of β-secretase-inhibiting activity.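 Note: enzyme cleavage of a biotinylated, Europium cryptate-labelled peptide substrate, incubated 3 h at 30 °C, then probed with Streptavidin-XL665 in KF-containing phosphate buffer.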 In kind it is biochemical. The settings on record: Recombinant human BACE-1, Table 139; read-out: IC50.
Sequence of Recombinant human BACE-1 (P56817 46-501): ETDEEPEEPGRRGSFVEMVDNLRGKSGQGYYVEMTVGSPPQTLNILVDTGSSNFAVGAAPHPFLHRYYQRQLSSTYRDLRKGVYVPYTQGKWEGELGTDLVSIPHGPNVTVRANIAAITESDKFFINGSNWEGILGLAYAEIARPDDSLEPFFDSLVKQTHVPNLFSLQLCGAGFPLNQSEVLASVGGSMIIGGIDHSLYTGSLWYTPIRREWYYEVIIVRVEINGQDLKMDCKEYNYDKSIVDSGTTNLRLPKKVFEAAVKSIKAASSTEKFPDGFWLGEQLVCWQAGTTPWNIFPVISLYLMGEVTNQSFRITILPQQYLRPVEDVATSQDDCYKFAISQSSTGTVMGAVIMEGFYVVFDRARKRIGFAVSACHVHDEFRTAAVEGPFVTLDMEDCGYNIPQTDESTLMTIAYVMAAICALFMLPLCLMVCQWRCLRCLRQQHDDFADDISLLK
Consider `C[C@@]1(c2cccc(N/C(=N/O)c3ncc(Cl)cc3Cl)c2)CCSC(N)=N1` [Compound 26], for which the IC50 was 4850 nM.

Still in this assay, the particulars now being: Recombinant human BACE-1, same assay, table; read-out: IC50.
With `C[C@@]1(c2cc(NC(=O)c3cnc(NCC#N)cn3)ccc2F)CCSC(N)=N1` [Compound 701], the IC50 is 200 nM.

Staying with this assay, now noted: substrate peptide 18 nM, BACE-1 7.4 nM, pH 5.0, 30° C., 3 hours; read-out: IC50 values.
In the case of `C[C@@]1(c2cc(NC(=O)c3cn4ccccc4n3)ccc2F)CCSC(N)=N1` [Compound 502], the IC50 is no more than 1000 nM. Turning to `Cc1nc(C)c(C(=O)Nc2cccc([C@]3(C)CCSC(N)=N3)c2)s1` [Compound 8], the IC50 is no more than 1000 nM. On to `CC1(C)C[C@@](C)(c2cc(NC(=O)c3ncccc3F)ccn2)N=C(N)S1` [Compound 655], for which the IC50 is no more than 1000 nM. Regarding `C[C@]1(c2cc(NC(=O)c3ncccc3F)ccc2F)N=C(N)SCC1(F)F` [Compound 660], the IC50 is no more than 1000 nM. As for `C[C@@]1(c2cc(NC(=O)c3ccc(OCC(N)=O)cn3)ccc2F)CCSC(N)=N1` [Compound 559], the IC50 is no more than 1000 nM. In the case of `Cc1nc(C(=O)Nc2cncc([C@]3(C)CCSC(N)=N3)c2)c(C)o1` [Compound 461], the IC50 is no more than 1000 nM.

Take `CC1(C)C[C@@](C)(c2cc(NC(=O)c3ccc(O)cn3)ccc2F)N=C(N)S1` [Compound 650]: the IC50 is no more than 1000 nM. With `Cc1nc(Br)sc1C(=O)Nc1cccc([C@]2(C)CCSC(N)=N2)c1` [Compound 6], the IC50 was no more than 1000 nM. Still for that read-out and setting: then `Cc1cnc(C(=O)Nc2ccc(F)c([C@@]3(C)N=C(N)SCC3(F)F)c2)cn1` [Compound 662], with no more than 1000 nM; and `Cc1cnc(C(=O)Nc2cc([C@]3(C)CCSC(N)=N3)c3oc(C)cc3c2)cn1` [Compound 468], with no more than 1000 nM. Same read-out and setting: as for `COc1cnc(C(=O)Nc2ccc(F)c([C@@]3(C)N=C(N)SCC3=O)c2)cn1` [Compound 689], the figure is no more than 1000 nM. On the same count and under the same terms, as for `Cc1nc(C(=O)Nc2ccc(F)c([C@@]3(C)N=C(N)SCC3(F)F)c2)co1` [Compound 664], the figure is no more than 1000 nM; as for `Cc1nc(C(=O)Nc2ccc(F)c([C@]3(C)CCSC(N)=N3)c2)cs1` [Compound 505], no more than 1000 nM. As to `C[C@@]1(c2cncc(NC(=O)c3cnc(Cl)cn3)c2)CCSC(N)=N1` [Compound 597], the IC50 is no more than 1000 nM.

Consider `C[C@@]1(c2cc(NC(=O)c3ncc(O)cc3F)ccc2F)CCSC(N)=N1` [Compound 491], for which the IC50 was no more than 1000 nM.

For the compound `Cc1cnn(-c2cnc(C(=O)Nc3ccc(F)c([C@]4(C)CCSC(N)=N4)c3)cn2)c1` [Compound 577], the IC50 is no more than 1000 nM.

As for `C[C@@]1(c2cccc(NC(=O)c3ccc(Cl)cn3)n2)CCSC(N)=N1` [Compound 599], the IC50 was no more than 1000 nM. Take `C[C@@]1(c2cc(NC(=O)c3cnc(-c4ccsc4)cn3)ccc2F)CCSC(N)=N1` [Compound 537]: the IC50 was no more than 1000 nM.

Regarding `C[C@@]1(c2cc(NC(=O)c3cnc(N=NN)cn3)ccc2F)CCSC(N)=N1` [Compound 79], the IC50 is no more than 1000 nM. The same measure, in the same setting: as for `Cc1cnc(C(=O)Nc2ccc(F)c([C@@]3(C)N=C(N)SCC34CC4)c2)cn1` [Compound 674], the figure is no more than 1000 nM; as for `Cn1nc(Cl)cc1C(=O)Nc1cncc([C@]2(C)CCSC(N)=N2)c1` [Compound 478], no more than 1000 nM. Still for that read-out and setting: then `CC(=O)c1ccc(C(=O)Nc2ccc(F)c([C@]3(C)CCSC(N)=N3)c2)s1` [Compound 530], with no more than 1000 nM; and `Cc1nc(C(=O)Nc2ccc(F)c([C@@]3(C)N=C(N)SCC3(C)C)c2)co1` [Compound 648], with no more than 1000 nM; and `C[C@@]1(c2cc(NC(=O)c3coc(C(F)(F)F)n3)ccc2F)CCSC(N)=N1` [Compound 669], with no more than 1000 nM. `CC1(c2cc(NC(=O)c3cnc(Cl)cn3)ccc2Br)CCSC(N)=N1` (stereo not shown) [Compound 517]: the IC50 was no more than 1000 nM. Same read-out and setting: then `Cc1nc(C(=O)Nc2cccc([C@]3(C)CCSC(N)=N3)c2)cs1` [Compound 10], with no more than 1000 nM; and `COc1cnc(C(=O)Nc2cccc([C@]3(C)CCSC(N)=N3)c2)c(N)n1` [Compound 29], with no more than 1000 nM; and `Cc1cnc(C(=O)Nc2cccc([C@]3(C)CCSC(N)=N3)c2)cn1` [Compound 563], with no more than 1000 nM.

Take `C[C@@]1(c2ccnc(NC(=O)c3ccc(Cl)cn3)c2)CCSC(N)=N1` [Compound 598]: the IC50 was no more than 1000 nM. Turning to `CCCCc1ccc(C(=O)Nc2ccc(F)c([C@@]3(C)N=C(N)SCC3(F)F)c2)nc1` [Compound 665], the IC50 was no more than 1000 nM. Same read-out and setting: as for `Cc1nc(C(=O)Nc2ccnc([C@]3(C)CC(C)(C)SC(N)=N3)c2)co1` [Compound 654], the figure is no more than 1000 nM; as for `CC1(C)C[C@@](C)(c2cc(NC(=O)c3coc(Cl)n3)ccc2F)N=C(N)S1` [Compound 645], no more than 1000 nM; as for `CC1(C)C[C@@](C)(c2cccc(NC(=O)c3ccc(C#N)cn3)c2)N=C(N)S1` [Compound 696], no more than 1000 nM. Still for that read-out and setting: as for `Cc1cn2cc(C(=O)Nc3ccc(F)c([C@]4(C)CCSC(N)=N4)c3)ncc2n1` [Compound 652], the figure is no more than 1000 nM. On to `COCCOc1cnc(C(=O)Nc2cc(F)c(F)c([C@]3(C)CCSC(N)=N3)c2)cn1` [Compound 148], for which the IC50 is no more than 1000 nM. The same measure, in the same setting: then `C[C@@]1(c2cc(NC(=O)c3ccc(OCC#CCN)cn3)ccc2F)CCSC(N)=N1` [Compound 566], with no more than 1000 nM. The same measure, in the same setting: as for `COc1nc(C(=O)Nc2ccc(F)c([C@]3(C)CCSC(N)=N3)c2)co1` [Compound 667], the figure is no more than 1000 nM; as for `Cc1cc(C(=O)Nc2ccc(F)c([C@]3(C)CCSC(N)=N3)c2)n(C(C)(C)C)n1` [Compound 538], no more than 1000 nM.

As a reminder, the IC50 is the concentration at which inhibition is half-maximal.
